Reference: US20150290234A1, “TARGETED INTRACELLULAR DELIVERY OF ANTIVIRAL AGENTS” (BBB Holding B.V., priority 2007, published 2015)
Positions count from the first letter of the chain named. In brackets after ≈: the same amount, converted by molar mass. Read-outs that look alike come from different tables or passages of the source.

Key:
CMV-infected cells = settings: cited from earlier work
viral DNA polymerase = settings: cited from earlier work
LLC-PK1 cells [1] = test: MTT-assay; settings: 10 mg/mL RBV, after 5 h, found to be toxic
YFV = test: microbe, parasite or virus in culture; assay type: cell-based; settings: Yellow fever virus, Vero, 120 h, read-out: EC50 for inhibition of RNA synthesis [EC50 RNA]
[2] = cited from earlier work
LLC-PK1 cells [3] = test: Cell uptake and localization on coverslips, fluorescence microscope; assay type: cell-based, porcine; settings: FIG. 1
Description: (§1) Cells with a known expression of the DTR were used from several species and origins, including porcine kidney epithelial cells (LLC-PK1), bovine brain capillary endothelial cells (BCEC), monkey kidney fibroblast cells (COS-1), and human glioblastoma cells. In particular, LLC-PK1 cells were incubated for 1 h in 24-wells plates on 400 microliter DMEM+FCS supplemented with 100 microgram/ml heparin, before 5 microgram CRM197-FITC or HRP-FITC was added to the well. Two hours later the cells were washed 3 times and the cells were lysated in 100 microliter 0.1 N NaOH, and fluorescence was determined at 480/530 nm in a fluostar plate reader. Cell protein per well was determined with a Biorad DC assay and fluorescence in the cell lysate was calculated per mg cell protein. In a separate group of cells, an access of 100 microgram free CRM197 was added to the well, 30 minutes before the CRM197-FITC conjugate was added to the medium. […] In a separate set of experiments, LLC-PK1 cells were cultured in similar conditions on coverslips and exposed to CRM197-FITC, HRP-FITC or sodium fluorescein. After fixation and mounting with vectashield with DAPI for nuclear staining, the coverslips were analyzed on a fluorescence microscope and photographed. […] Identical results were found on BCEC, COS-1 and human glioblastoma cells, also after several time points (up to 24 hours after exposure).

[4] = Plasma pharmacokinetics of FITC-labelled protein after intravenous bolus; settings: hamster, i.v. 1 mg FITC-labelled protein, calculated sixty minutes after injection
[5] = target: T1, DTR expressed on LLC-PK1 cells (Sus scrofa, UniProt Q01580); test: Receptor-specific cell uptake, fluorescence in cell lysate; assay type: cell-based, porcine; settings: LLC-PK1, 5 microgram per well, 2 hours
T1 construct: Cells with a known expression of the DTR were used from several species and origins; endogenous in cells; host or cells: LLC-PK1 (porcine kidney epithelial cells)
Description: as §1

[6] = Biodistribution of FITC conjugates; settings: hamster, 90 minutes after i.v. injection, FIG. 4
influenza = settings: therapy started within 48 hours of the onset of symptoms; cited from earlier work
[7] = cited from earlier work; remark: listed apart in the source
[8] = Pharmacokinetics of sodium fluorescein after intravenous bolus; settings: rats, 1 mg intravenous bolus
[9] = target: diphtheria toxin receptor (DTR) expressed on LLC-PK1 cells (porcine kidney epithelial cells) (porcine) (UniProt Q01580); test: cell-based or functional assay
HRP-PEG-liposomes = target: T2, HRP-PEG-liposomes (UniProt P00433 31-338); test: fluorescence microscopy of LLC-PK1 cells after 4 hours incubation
T2 sequence (looked up): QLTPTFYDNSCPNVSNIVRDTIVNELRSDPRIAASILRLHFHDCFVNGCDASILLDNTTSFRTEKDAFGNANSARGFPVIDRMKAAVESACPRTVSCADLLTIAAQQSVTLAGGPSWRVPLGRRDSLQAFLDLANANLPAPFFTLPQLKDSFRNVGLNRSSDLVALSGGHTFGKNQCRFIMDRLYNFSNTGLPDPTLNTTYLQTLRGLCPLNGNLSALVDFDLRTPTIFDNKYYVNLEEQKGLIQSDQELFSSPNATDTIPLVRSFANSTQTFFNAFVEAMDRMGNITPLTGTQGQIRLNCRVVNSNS

[10] = target: T3, HRP-FITC (horseradish peroxidase labelled with FITC) (UniProt P00433 31-338); test: uptake by LLC-PK1 cells for 2 h, fluorescence of the cell lysate; fluorescence microscopy also showed no signal
T3 construct: also called HRP-FITC conjugate
T3 sequence (looked up): T2 sequence (looked up)

[11] = target: T3, HRP-FITC (horseradish peroxidase …); test: fluorescence microscopy of cells on coverslips
[12] = 500 mg of probenecid every six hours

Nc1nc2c(ncn2COCCOP(=O)(O)OP(=O)(O)OP(=O)(O)O)c(=O)[nH]1 [Aciclo-GTP]
half-life compared to GCV-TP in infected cells (CMV-infected cells): four- to five-fold shorter | affinity to viral relative to cellular polymerase (viral DNA polymerase): approximately 100 times

NC(=O)c1ncn([C@@H]2O[C@H](CO)[C@@H](O)[C@H]2O)n1 [RBV, 1-beta-D-ribofuranosyl-1,2,4-triazole-3-carboxamide]
cell viability (LLC-PK1 cells [1]): 60% | EC50 (YFV): 12.3 ± 5.6 µg/mL (≈ 50.4 µM) | absorption from the GI tract with a fatty meal ([2]; fatty meal): about 75% | absorption from the GI tract ([2]; in vivo): about 45% | fraction of absorbed drug excreted into the urine unchanged ([2]; in vivo): About a third | mean half-life for multiple doses in the body ([2]; multiple doses): about 12 days | half-life after single dose ([2]; single dose): 0.5 h

CCOC(=O)C1=C[C@@H](OC(CC)CC)[C@H](NC(C)=O)[C@@H](N)C1 [Oseltamivir, (3R,4R,5S)-4-acetylamino-5-amino-3-(1-ethylpropoxy)-1-cyclohexene-1-carboxylic acid ethyl ester]
change of half-life with probenecid [2, 12]: doubled | change of peak plasma concentration (Cmax) with probenecid [2, 12]: doubled | increase of overall systemic exposure (AUC) with probenecid [2, 12]: 2.5 fold | (elimination) half-life ([2]; in vivo): 6 to 10 h | oral bioavailability [2]: 75%

HRP-FITC: horseradish peroxidase (HRP) labelled with FITC as a control protein
fluorescence signal / uptake in cells (LLC-PK1 cells [3]): No fluorescence signal was found | plasma half-life [4]: 0.633 h | conjugate found in the cell lysates [5]: No HRP-FITC was found | accumulation in tissues (brain, heart, lung, liver, spleen, kidney) [6]: not (or hardly) detectable in these tissues

CC(=O)NC1C(NC(=N)N)C=C(C(=O)O)OC1C(O)C(O)CO (centres unmarked) [Zanamivir, 5-acetamido-4-guanidino-6-(1,2,3-trihydroxypropyl)-5,6-dihydro-4H-pyran-2-carboxylic acid]
(elimination) half-life ([2]; in vivo): 2.5 to 5.1 h | protein binding in plasma ([2]; in vivo): < 10% | oral bioavailability [2]: 2% | reduction of time to symptom resolution (influenza): 1.5 days

Nc1nc(O)c2ncn(COC(CO)CO)c2n1 [ganciclovir]
half-life ([2]; depending on renal function): 2 to 6 h | elimination time in end-stage renal disease ([2]; end-stage renal disease): over 24 hours | absorption of the oral form, fasting ([2]; fasting): about 5% | concentration in the central nervous system relative to plasma level ([2]; in vivo): about 50 % of the plasma level | plasma drug eliminated unchanged in the urine ([2]; in vivo): About 90% | oral bioavailability [2]: approximately 5% | absorption of the oral form, with food ([2]; with food): about 8%

Nc1nc2c(ncn2COCCO)c(=O)[nH]1 [Aciclovir]
water solubility [7]: poorly water soluble | protein binding in plasma ([2]; in vivo): 30% | oral bioavailability [2]: 10-20% | time of peak plasma concentration ([2]; orally administered): 1 to 2 h

O=C([O-])c1ccccc1-c1c2ccc(=O)cc-2oc2cc([O-])ccc12.[Na+].[Na+] [sodium fluorescein]
fluorescence signal / uptake in cells (LLC-PK1 cells [3]): No fluorescence signal was found | AUC [8]: 13 microgram*min/ml | half-life [8]: 0.583 h

CRM197-FITC conjugate (from UniProt P00588 33-567) (ligand)
cell uptake: CRM197-FITC in the cell lysate per mg cell protein after 2 hours (microgram per mg cell protein) [9]: 0.54

B1: diphtheria toxin receptor (DTR) expressed on LLC-PK1 cells (porcine kidney epithelial cells) (receptor, UniProt Q01580 63-148, looked up)
chain: DLEEADLDLLRADFSSKPQALATPSKEERGKRKKKGKGLGKKRDPCLRKYKDFCIHGECKYVKELRAPSCICHPGYHGERCHGLSL
notes: whole, on cells; also called HB-EGF
binding result (HRP-PEG-liposomes): no binding | binding result [10]: no binding

B2: diphtheria toxin receptor (DTR) on bovine brain capillary endothelial cells (BCEC) (receptor)
chain: B1 chain with D6N, L10F, D13A, D44N, K49R, A67V, S69T
notes: whole, on cells; also called HB-EGF precursor
binding result [11]: no binding

B3: diphtheria toxin receptor (DTR) on human glioblastoma cells (receptor, UniProt Q99075 63-148, looked up)
chain: B1 chain with E3Q, A12V, D13T, F14L, S25N, R29H
notes: as for B2
binding result [11]: no binding
